This test has as its system SARS-CoV-2 (WA1). The test is described as follows: microbe, parasite or virus in culture. Format: cell-based.
Where [1] appears, read: Severe acute respiratory syndrome coronavirus 2, Vero C1008, VIRADEM compounds, SARS-CoV-2(WA1) CPE assay, Round 2, concentration range 1000-0.05 nM, Vero E6, read-out: IC50.
Where [2] appears, read: VIRADEM compounds, SARS-CoV-2(WA1) CPE assay, Round 2, concentration range 1000-0.05 nM, Vero E6, read-out: IC50.

Structures can show the parent of a compound that is named as a salt. Where two headings read alike, the source gives them in different places. Bounds are passed on as bounds.

Broadly, the IC50 is the concentration that inhibits the measured activity by half.

In the case of `CCOc1ccc(Nc2nc(N3CCOCC3)nc(N3CCOCC3)n2)cc1` [VIRADEM-9794, (4,6-Dimorpholin-4-yl-[1,3,5]triazin-2-yl)-(4-ethoxyphenyl)-amine hydrochloride], the IC50 under setting [1] was greater than 1000 nM.
Still for that read-out and setting: the result for `CCCCc1ccc(Nc2nc(N3CCOCC3)nc(N3CCOCC3)n2)cc1` [VIRADEM-10257, (4-n-Butylphenyl)-(4,6-dimorpholin-4-yl-[1,3,5]triazin-2-yl)-amine hydrochloride] reads greater than 1000 nM.
Still for that read-out and setting: the result for `Clc1ccc(Nc2nc(N3CCOCC3)nc(N3CCOCC3)n2)cc1Cl` [VIRADEM-10258, (3,4-Dichlorophenyl)-(4,6-dimorpholin-4-yl-[1,3,5]triazin-2-yl)-amine hydrochloride] reads 610 nM; that for `c1ccc(Nc2nc(N3CCOCC3)nc(N3CCOCC3)n2)cc1` [VIRADEM-10846, (4,6-Dimorpholin-4-yl-[1,3,5]triazin-2-yl)-phenylamine hydrochloride], greater than 1000 nM; that for `Cc1cccc(Nc2nc(N3CCOCC3)nc(N3CCOCC3)n2)c1` [VIRADEM-10848, (4,6-Dimorpholin-4-yl-[1,3,5]triazin-2-yl)-m-tolyl-amine hydrochloride], greater than 1000 nM.
On the same count and under the same terms, the result for `Fc1ccc(Nc2nc(N3CCOCC3)nc(N3CCOCC3)n2)cc1` [VIRADEM-10849, (4,6-Dimorpholin-4-yl-[1,3,5]triazin-2-yl)-(4-fluorophenyl)-amine hydrochloride] reads greater than 1000 nM; that for `S=C(NNc1nc(N2CCOCC2)nc(N2CCOCC2)n1)Nc1ccccc1` [VIRADEM-10867, 2-(4,6-dimorpholine-4-yl-1,3,5-triazine-2-yl)-N-phenylhydrazine-carbothioamide], greater than 1000 nM.
Turning to `COc1cccc(Nc2nc(N3CCOCC3)nc(N3CCOCC3)n2)c1` [VIRADEM-10879, (4,6-Dimorpholin-4-yl-[1,3,5]triazin-2-yl)-(3-methoxyphenyl)-amine hydrochloride], under setting [1], the IC50 was greater than 1000 nM.
Same read-out and setting: the result for `COc1ccccc1Nc1nc(N2CCOCC2)nc(N2CCOCC2)n1` [VIRADEM-10881, (4,6-Dimorpholin-4-yl-[1,3,5]triazin-2-yl)-(2-methoxyphenyl)-amine hydrochloride] reads greater than 1000 nM.
With `Cc1ccc(Nc2nc(N3CCOCC3)nc(N3CCOCC3)n2)cc1` [VIRADEM-10882, (4,6-Dimorpholin-4-yl-[1,3,5]triazin-2-yl)-p-tolyl-amine hydrochloride], the concentration for half-maximal inhibition (IC50) under setting [1] is greater than 1000 nM.
Still for that read-out and setting: in the case of `CCc1ccc(Nc2nc(N3CCOCC3)nc(N3CCOCC3)n2)cc1` [VIRADEM-10883, (4,6-Dimorpholin-4-yl-[1,3,5]triazin-2-yl)-(4-ethylphenyl)-amine hydrochloride] it was 990 nM.
Where the note is “Severe acute respiratory syndrome coronavirus 2, Vero C1008”, `Cc1ccc(Nc2nc(N3CCOCC3)nc(N3CCOCC3)n2)cc1C` [VIRADEM-10884, (3,4-dimethylphenyl)-(4,6-dimorpholin-4-yl-[1,3,5]triazin-2-yl)-amine] registered an IC50 of 80 nM.
On to `COc1ccc(Nc2nc(N3CCOCC3)nc(N3CCOCC3)n2)cc1` [VIRADEM-10885, (4,6-Dimorpholin-4-yl-[1,3,5]triazin-2-yl)-(4-methoxyphenyl)-amine hydrochloride], for which the half-inhibitory concentration (IC50) under setting [1] was greater than 1000 nM.
The same measure, in the same setting: the result for `Cc1ccc(Nc2nc(N3CCOCC3)nc(N3CCOCC3)n2)cc1Cl` [VIRADEM-10886, (3-Chloro-4-methylphenyl)-(4,6-dimorpholin-4-yl-[1,3,5]triazin-2-yl)-amine hydrochloride] reads 310 nM.
The same measure, in the same setting: in the case of `Cc1cc(C)cc(Nc2nc(N3CCOCC3)nc(N3CCOCC3)n2)c1` [VIRADEM-10887, (3,5-Dimethylphenyl)-(4,6-dimorpholin-4-yl-[1,3,5]triazin-2-yl)-amine] it was greater than 1000 nM.
In the case of `COC(=O)c1ccc(Nc2nc(N3CCOCC3)nc(N3CCOCC3)n2)cc1` [VIRADEM-10890, 4-(4,6-Dimorpholin-4-yl-[1,3,5]triazin-2-ylamino-benzoic acid methyl ester hydrochloride], the IC50 under setting [2] is greater than 1000 nM.
As to `FC(F)(F)Oc1ccc(Nc2nc(N3CCOCC3)nc(N3CCOCC3)n2)cc1` [VIRADEM-10891, (4,6-Dimorpholin-4-yl-[1,3,5]triazin-2-yl)-(4-trifluoromethoxyphenyl)-amine hydrochloride], under setting [1], the IC50 was greater than 1000 nM.
Still for that read-out and setting: in the case of `c1ccc(Oc2ccc(Nc3nc(N4CCOCC4)nc(N4CCOCC4)n3)cc2)cc1` [VIRADEM-10892, (4,6-Dimorpholin-4-yl-[1,3,5]triazin-2-yl)-(4-phenoxyphenyl)-amine hydrochloride] it was greater than 1000 nM; in that of `Fc1ccc(Nc2nc(N3CCOCC3)nc(N3CCOCC3)n2)cc1Cl` [VIRADEM-10893, (3-Chloro-4-fluorophenyl)-(4,6-dimorpholin-4-yl-[1,3,5]triazin-2-yl)-amine hydrochloride], greater than 1000 nM; in that of `Clc1ccc(Nc2nc(N3CCOCC3)nc(N3CCOCC3)n2)cc1` [VIRADEM-10894, (4-Chlorophenyl)-(4,6-dimorpholin-4-yl-[1,3,5]triazin-2-yl)-amine hydrochloride], 840 nM.
Still for that read-out and setting: the result for `Clc1cccc(Nc2nc(N3CCOCC3)nc(N3CCOCC3)n2)c1` [VIRADEM-10902, (3-Chlorophenyl)-(4,6-dimorpholin-4-yl-[1,3,5]triazin-2-yl)-amine hydrochloride] reads greater than 1000 nM; that for `C1CCN(c2nc(N3CCOCC3)nc(N3CCOCC3)n2)CC1` [VIRADEM-10903, 2,4-Dimorpholin-4-yl-6-piperidin-1-yl-[1,3,5]triazin hydrochloride], greater than 1000 nM.
On the same count and under the same terms, the result for `COc1ccc(Nc2nc(N3CCCCC3)nc(N3CCCCC3)n2)cc1` [VIRADEM-11041, (4,6-Dipiperidine-1-yl-[1,3,5]triazin-2-yl)-(4-methoxyphenyl)-amine hydrochloride] reads greater than 1000 nM.
With `Cc1ccc(Nc2nc(C3CCNC3)nc(C3CCNC3)n2)cc1` (stereo not shown) [VIRADEM-11139, (4,6-Dipyrrolidin-4-yl-[1,3,5]triazin-2-yl)-p-tolyl-amine hydrochloride], the IC50 under setting [1] was greater than 1000 nM.
With `Clc1cccc(Nc2nc(N3CCCCC3)nc(N3CCCCC3)n2)c1` [VIRADEM-11499, (3-Chlorophenyl)-(4,6-dipiperidine-1-yl-[1,3,5]triazin-2-yl)-amine hydrochloride], the IC50 under setting [1] was greater than 1000 nM.
In the case of `c1ccc(Oc2ccc(Nc3nc(C4CCNC4)nc(C4CCNC4)n3)cc2)cc1` (stereo not shown) [VIRADEM-11503, (4,6-Dipyrrolidin-4-yl-[1,3,5]triazin-2-yl)-(4-phenoxyphenyl)-amine hydrochloride], the half-maximal inhibitory concentration (IC50) under setting [1] is greater than 1000 nM.
Still for that read-out and setting: in the case of `CC(=O)Nc1ccc(Nc2nc(N3CCCC3)nc(N3CCCC3)n2)cc1` [VIRADEM-11510, N-[4-(4,6-Dipyrrolidin-1-yl-[1,3,5]triazin-2-ylamino)-phenyl]-acetamide hydrochloride] it was greater than 1000 nM; in that of `CCCCc1ccc(Nc2nc(N3CCCC3)nc(N3CCCC3)n2)cc1` [VIRADEM-11511, (4-Butylphenyl)-(4,6-dipyrrolidin-1-yl-[1,3,5]triazin-2-yl)-amine hydrochloride], greater than 1000 nM; in that of `CCOc1ccc(Nc2nc(N3CCCC3)nc(N3CCCC3)n2)cc1` [VIRADEM-11515, (4,6-Dipyrrolidin-1-yl-[1,3,5]triazin-2-yl)-(4-ethoxyphenyl)-amine hydrochloride], greater than 1000 nM.
The same measure, in the same setting: the result for `c1cc2c(cc1Nc1nc(N3CCCC3)nc(N3CCCC3)n1)OCO2` [VIRADEM-11522, Benzo[1,3]dioxol-5-yl-(4,6-dipyrrolidin-1-yl-[1,3,5]triazin-2-yl)-amine hydrochloride] reads greater than 1000 nM.
The same measure, in the same setting: in the case of `c1ccc(Nc2nc(N3CCCC3)nc(N3CCCC3)n2)cc1` [VIRADEM-11528, (4,6-Dipyrrolidin-1-yl-[1,3,5]triazin-2-yl)-phenylamine hydrochloride] it was greater than 1000 nM.
For `c1cc2c(cc1Nc1nc(Nc3ccc4c(c3)OCO4)nc(N3CCOCC3)n1)OCO2` [VIRADEM-11566, N,N^1-bis-benzo[1,3]dioxol-5-yl-6-morpholin-4-yl-[1,3,5]triazine-2,4-diamine], the IC50 under setting [1] amounted to 320 nM.
Consider `c1cc2c(cc1Nc1nc(N3CCCC3)nc(N3CCCC3)n1)OCCO2` [VIRADEM-11596, -(2,3-dihydrobenzo[1,4]dioxin-6-yl)-(4,6-dipyrrolidin-1-yl-[1,3,5]triazin-2-yl)-amine hydrochloride], for which, under setting [2], the IC50 is greater than 1000 nM.
Take `COc1ccccc1Nc1nc(N2CCCC2)nc(N2CCCC2)n1` [VIRADEM-11597, (4,6-Dipyrrolidin-1-yl-[1,3,5]triazin-2-yl)-(2-methoxyphenyl)-amine hydrochloride]: under setting [1], the IC50 was greater than 1000 nM.
Still for that read-out and setting: in the case of `CCOC(=O)c1ccc(Nc2nc(Nc3ccc(F)cc3)nc(N3CCOCC3)n2)cc1` [VIRADEM-11660, 4-[4-(4-Fluorophenylamino)-6-morpholin-4-yl-[1,3,5]triazin-2-ylamino]benzoic acid ethyl ester] it was 120 nM.
Still for that read-out and setting: the result for `NC1=NC(Nc2ccc3c(c2)OCO3)N(c2ccc(F)cc2)C(N2CCOCC2)=N1` (stereo not shown) [VIRADEM-11674, N-Benzo[1,3]dioxol-5-yl-N^1-(4-fluorophenyl)-6-morpholin-4-yl-[1,3,5]triazine-2,4-diamine hydrochloride] reads 200 nM; that for `Cc1cccc(N2C(N3CCOCC3)=NC(N)=NC2Nc2ccc(Cl)cc2)c1` (stereo not shown) [VIRADEM-11680, N-(4-Chlorophenyl)-6-morpholin-4-yl-N^1-m-tolyl-[1,3,5]triazine-2,4-diamine hydrochloride], greater than 1000 nM.
`CCc1ccc(Nc2nc(Nc3ccc(Cl)c(Cl)c3)nc(N3CCOCC3)n2)cc1` [VIRADEM-11758, N-(3,4-Dichlorophenyl)-N^1-(4-ethyphenyl)-6-morpholin-4-yl-[1,3,5]triazine-2,4-diamine]: the IC50 under setting [2] is greater than 1000 nM.
On the same count and under the same terms, in the case of `Cc1cc(C)cc(Nc2nc(Nc3ccc(Cl)c(Cl)c3)nc(N3CCOCC3)n2)c1` [VIRADEM-11759, N-(3,4-Dichlorophenyl)-N^1-(3,5-dimethyphenyl)-6-morpholin-4-yl-[1,3,5]triazine-2,4-diamine] it was 350 nM.
Same read-out and setting: the result for `CCNc1nc(NCC)nc(Nc2ccc(C)c(C)c2)n1` [VIRADEM-11768, N-(3,4-Dimethylhenyl)-N^1,N^2-diethyl-[1,3,5]triazine-2,4,6-triamine hydrochloride] reads greater than 1000 nM.

The values are drawn from patent US20260076973A1 (priority 2023, published 2026).
